Laboratory results published in ChEMBL document CHEMBL3864170, “Pyrazole Inhibitors of GluN2B NMDA Receptor Subunit” (ACS Med Chem Lett, 2016).

Columns and labels:
[1] = Antidepressive activity in po dosed NMRI mouse assessed as reduction in duration of immobility administered 30 mins prior to the test measured on last 4 mins of the 10 mins test by force swim test; format: functional, organism-based
[2] = target: hERG (KCNH2) (Homo sapiens, UniProt Q12809); assay: Displacement of [3H]-dofetilide from human ERG expressed in HEK293 cell membranes after 90 mins by scintillation counting; settings: membranes of HEK293 cells that express human ERG, probe [3H]-dofetilide
Chain of hERG (KCNH2) (Q12809 whole entry): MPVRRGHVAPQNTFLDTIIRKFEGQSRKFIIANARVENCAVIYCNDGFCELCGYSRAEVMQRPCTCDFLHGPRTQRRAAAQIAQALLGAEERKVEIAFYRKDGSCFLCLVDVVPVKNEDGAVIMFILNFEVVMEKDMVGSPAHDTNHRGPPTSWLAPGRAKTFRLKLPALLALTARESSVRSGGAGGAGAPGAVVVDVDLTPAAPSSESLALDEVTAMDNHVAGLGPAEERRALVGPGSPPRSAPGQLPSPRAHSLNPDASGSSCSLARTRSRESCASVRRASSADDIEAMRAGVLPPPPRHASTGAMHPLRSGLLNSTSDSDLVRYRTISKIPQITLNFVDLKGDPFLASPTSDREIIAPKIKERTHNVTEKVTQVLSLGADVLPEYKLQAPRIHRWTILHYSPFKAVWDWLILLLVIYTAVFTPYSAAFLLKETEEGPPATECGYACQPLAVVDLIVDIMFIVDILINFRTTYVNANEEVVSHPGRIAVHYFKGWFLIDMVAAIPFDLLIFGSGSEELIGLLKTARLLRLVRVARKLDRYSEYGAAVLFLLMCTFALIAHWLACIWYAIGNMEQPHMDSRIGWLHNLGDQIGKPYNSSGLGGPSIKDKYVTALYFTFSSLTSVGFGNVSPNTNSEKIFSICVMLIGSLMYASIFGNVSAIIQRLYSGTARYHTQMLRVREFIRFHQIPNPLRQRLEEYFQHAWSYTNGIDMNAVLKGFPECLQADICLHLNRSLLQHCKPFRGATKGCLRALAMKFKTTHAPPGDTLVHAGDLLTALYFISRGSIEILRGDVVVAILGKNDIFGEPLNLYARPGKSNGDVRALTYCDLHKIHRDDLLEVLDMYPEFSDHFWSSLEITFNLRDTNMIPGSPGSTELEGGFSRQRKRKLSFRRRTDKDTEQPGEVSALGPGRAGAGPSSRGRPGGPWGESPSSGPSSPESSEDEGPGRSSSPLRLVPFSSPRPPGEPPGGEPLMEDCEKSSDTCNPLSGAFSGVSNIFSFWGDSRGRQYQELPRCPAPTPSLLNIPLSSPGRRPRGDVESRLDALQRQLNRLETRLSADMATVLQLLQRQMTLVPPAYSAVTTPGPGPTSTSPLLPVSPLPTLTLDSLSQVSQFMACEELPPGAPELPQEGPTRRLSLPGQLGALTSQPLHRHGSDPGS

[3] = target: Glutamate receptor ionotropic, NMDA 2B (Rattus norvegicus, UniProt Q00960); assay: Antagonist activity at Wistar rat brain NR2B assessed as inhibition of glutamate/glycine-induced Ca2+ flux measured after 90 secs
Chain of Glutamate receptor ionotropic, NMDA 2B (Q00960 whole entry): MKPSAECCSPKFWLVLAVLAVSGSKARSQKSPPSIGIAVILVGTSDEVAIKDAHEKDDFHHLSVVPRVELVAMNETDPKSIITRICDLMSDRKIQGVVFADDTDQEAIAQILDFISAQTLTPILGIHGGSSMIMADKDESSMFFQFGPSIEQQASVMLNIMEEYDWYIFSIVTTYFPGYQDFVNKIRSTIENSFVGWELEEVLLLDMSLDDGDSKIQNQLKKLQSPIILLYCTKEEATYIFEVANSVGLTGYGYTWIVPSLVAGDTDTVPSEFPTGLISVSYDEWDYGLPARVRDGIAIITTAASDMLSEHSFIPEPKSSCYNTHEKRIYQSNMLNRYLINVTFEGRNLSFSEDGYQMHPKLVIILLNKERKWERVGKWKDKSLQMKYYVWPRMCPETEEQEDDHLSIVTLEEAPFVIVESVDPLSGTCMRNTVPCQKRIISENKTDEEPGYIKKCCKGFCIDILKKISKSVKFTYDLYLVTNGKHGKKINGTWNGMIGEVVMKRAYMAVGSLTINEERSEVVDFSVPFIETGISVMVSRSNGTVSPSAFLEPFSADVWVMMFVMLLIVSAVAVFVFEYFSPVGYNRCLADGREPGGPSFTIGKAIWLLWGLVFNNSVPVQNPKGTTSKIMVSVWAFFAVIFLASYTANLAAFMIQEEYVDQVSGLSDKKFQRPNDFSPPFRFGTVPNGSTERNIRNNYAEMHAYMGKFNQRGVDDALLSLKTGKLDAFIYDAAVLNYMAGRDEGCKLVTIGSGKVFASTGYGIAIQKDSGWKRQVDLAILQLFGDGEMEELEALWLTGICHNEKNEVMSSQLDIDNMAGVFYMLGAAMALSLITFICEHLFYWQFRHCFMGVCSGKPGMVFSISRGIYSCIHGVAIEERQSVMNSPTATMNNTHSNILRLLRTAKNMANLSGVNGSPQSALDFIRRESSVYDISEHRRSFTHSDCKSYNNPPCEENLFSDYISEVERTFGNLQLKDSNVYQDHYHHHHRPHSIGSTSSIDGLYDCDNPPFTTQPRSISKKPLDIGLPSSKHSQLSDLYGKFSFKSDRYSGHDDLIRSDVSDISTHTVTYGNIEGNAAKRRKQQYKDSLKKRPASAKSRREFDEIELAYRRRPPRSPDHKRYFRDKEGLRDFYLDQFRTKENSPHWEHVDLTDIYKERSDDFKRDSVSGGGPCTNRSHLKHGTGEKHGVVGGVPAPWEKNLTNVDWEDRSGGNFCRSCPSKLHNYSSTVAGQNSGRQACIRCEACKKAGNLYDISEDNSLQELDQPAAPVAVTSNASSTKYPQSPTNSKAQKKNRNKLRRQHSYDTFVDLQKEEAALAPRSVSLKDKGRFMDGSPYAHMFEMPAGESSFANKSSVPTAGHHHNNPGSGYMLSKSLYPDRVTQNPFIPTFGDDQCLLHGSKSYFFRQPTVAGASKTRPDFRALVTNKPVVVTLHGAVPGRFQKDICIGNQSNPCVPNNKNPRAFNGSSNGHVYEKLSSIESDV

SMILES	MED [1] [mg/kg]	IC50 at 90 min [2] [nM]	IC50 [3] [nM]
Cn1ccc(Cn2cc(-c3ccc(Cl)c(OC(F)F)c3)cn2)n1	30	–	–
Fc1ccc(-c2cnn(Cc3cc[nH]n3)c2)cc1OC(F)F	10	–	–
FC(F)Oc1cc(-c2cnn(Cc3cn[nH]c3)c2)ccc1Cl	–	52600	8.23
Cn1ccc(Cn2cc(-c3ccc(Cl)c(C(F)(F)F)c3)cn2)n1	–	3470	1010
